Source: patent publication US12161647B2, “Treating hearing loss” (Massachusetts Eye and Ear Infirmary, priority 2012, dated 2024)

Legend:
[1] = tested on: deafened cochlea of Sox2-CreER; mT/mG mice; experiment: In vivo lineage tracing of Sox2-positive supporting cells after round window administration; set-up: species or system mouse; conditions: one month after LY411575 treatment, left ear; none in control ears
Source text: For the experiments using inner ear spheres, C57BL/6 (Jackson Labs) or Math1-nGFP reporter mouse (19) (a gift from Jane Johnson, University of Texas) of both sexes were used. To create organ of Corti explants with ablated hair cells, Mos-iCsp3 mice (20) were crossed with Pou4f3-Cre mice (6) (a gift from Douglas Vetter, Tufts University). For all in vivo experiments, we used 4-week-old Cre reporter line, mT/mG (Jackson Labs), crossed to a Sox2-CreER mouse (47) (a gift from Konrad Hochedlinger, Mass General Hospital). After genotyping, double transgenic animals were used for lineage tracing. We used young adult wild-type littermates of the mT/mG; Sox2-CreER mice to prevent strain effects in the response to noise, which are known to vary depending on background (22, 48). Mice were genotyped by PCR. All protocols were approved by the Institutional Animal Care and Use Committee of Massachusetts Eye and Ear Infirmary or the by the ethics committee of Keio University Union on Laboratory Animal Medicine, in compliance with the Public Health Service policy on humane care and use of laboratory animals.
4-week-old mice were exposed free-field, awake and unrestrained, in a small reverberant chamber (22). Acoustic trauma was produced by a 2 h exposure to an 8-16 kHz octave band noise presented at 116 dB SPL. […]

Hes5 mRNA = experiment: qRT-PCR of Hes5 in deafened mature cochlea after round window administration; assay type: in vivo, mouse
Procedure: (§1) 4-week-old mice were exposed free-field, awake and unrestrained, in a small reverberant chamber (22). Acoustic trauma was produced by a 2 h exposure to an 8-16 kHz octave band noise presented at 116 dB SPL. The exposure stimulus was generated by a custom white-noise source, filtered (Brickwall Filter with a 60 dB/octave slope), amplified (Crown power amplifier), and delivered (JBL compression driver) through an exponential horn fitted securely to a hole in the top of a reverberant box.
4-week-old mice weighing 12 to 16 g were used. Before surgery, the animals were anesthetized with ketamine (20 mg/kg, i.p.) and xylazine (100 mg/kg, i.p.), and an incision was made posterior to the pinna near the external meatus after local administration of lidocaine (1%). […]
The organs of Corti were dissected in HBSS (Invitrogen) and stored in RNAlater (Ambion) at −80° C. until further use. […] Samples were analyzed in 96 wells in triplicate by qPCR (Applied Biosystems 7900HT), and PCR thermal cycling conditions were as follows: initial denaturation at 95° C. for 2 min, denaturation at 95° C. for 15 s, annealing/extension at 60° C. for 1 min for 45 cycles. […] Relative gene expression was analyzed by using the ΔΔCT method. Gene expression was calculated relative to 18S RNA, and the amount of cDNA applied was adjusted so that the Ct value for 18S RNA was between 8 and 11. […]

deafened ears = experiment: ABR and DPOAE in deafened ears after round window administration; assay type: in vivo, mouse
Procedure: as §1
4-week-old mice weighing 12 to 16 g were used. Before surgery, the animals were anesthetized with ketamine (20 mg/kg, i.p.) and xylazine (100 mg/kg, i.p.), and an incision was made posterior to the pinna near the external meatus after local administration of lidocaine (1%). The otic bulla was opened to approach the round window niche. The end of a piece of PE 10 tubing (Becton Dickinson) was drawn to a fine tip in a flame and gently inserted into the round window niche. LY411575 was dissolved in DMSO and diluted 10-fold in polyethylene glycol 400 (Sigma) to a final concentration of 4 mM. This solution (total volume 1 μl) was injected into the round window niche of the left ear. Polyethylene glycol 400 with 10% DMSO was injected into the right ear as a control. The solution was administered for 2 min. This approach is presently used clinically (e.g. transtympanic injection of steroids for sudden hearing loss and gentamicin for severe balance disorders) and has the advantage of sparing the […] but still taking advantage of the local route provided by the round window membrane for delivery of drug into the inner ear (50). Gelatin was placed on the niche to maintain the solution, and the wound was closed.
Auditory brain stem responses (51, 52) were measured in each animal at 7 log-spaced frequencies (half-octave steps from 5.6 to 45.2 kHz) before and 1 d after noise exposure, and 1-week, 1-month, and 3-months after surgery. Mice were anesthetized with ketamine (100 mg/kg i.p.) and xylazine (20 mg/kg i.p.). Needle electrodes were inserted at vertex and pinna, with a ground near the tail. ABRs were evoked with 5-ms tone pips (0.5-ms rise-fall with a cos^2 onset envelope delivered at 35/s). The response was amplified, filtered and averaged in a LabVIEW-driven data-acquisition system. Sound level was raised in 5 dB steps from ≥10 dB below threshold <80 dB SPL. At each sound level, 1024 responses were averaged (with stimulus polarity alternated), using an “artifact reject,” whereby response waveforms were discarded when peak-to-peak response amplitude exceeded 15 μV. […] For amplitude versus level functions, the wave I peak was identified by visual inspection at each sound level and the peak-to-peak amplitude computed.

SMILES: C[C@H](NC(=O)[C@@H](O)c1cc(F)cc(F)c1)C(=O)N[C@@H]1C(=O)N(C)c2ccccc2-c2ccccc21 [LY411575, N-2((2S)-2-(3,5-difluorophenyl)-2-hydroxyethanoyl)-N1-((7S)-5-methyl-6-oxo-6,7-dihydro-5H-dibenzo[b,d]azepin-7-yl)-l-alaninamide]
- myosin VIIa-positive cells also expressing GFP (Sox2 lineage) [1]: numerous
- noise-induced Hes5 mRNA induction (Hes5 mRNA; round window niche, 4 mM 1 μl, 1 d after noise, at 1 d, p<0.01 vs control cochlea): completely blocked
- Hes5 expression level (Hes5 mRNA; three days after LY411575 treatment): unchanged from the control cochlea
- ABR wave I amplitudes (deafened ears; 8, 11.33 and 16 kHz, 3 months): increased
- ABR threshold recoveries (deafened ears; 8, 11.33 and 16 kHz, 3 months after treatment vs 1 d after noise): significantly greater than control
- sound level at which the ABR peak could first be detected (deafened ears; 8 kHz, 3 months after treatment, example mouse, control side 75 dB): 65 dB
- ABR threshold recoveries at high frequencies (deafened ears; frequencies above 22.65 kHz, either ear): No threshold recoveries
- recoveries above the noise floor of DPOAE (deafened ears; mouse, in vivo): no recoveries
